From PubChem BioAssay (NCI)
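96-well plates; 48 h exposure; 5 concentrations. Endpoints by linear interpolation between flanking doses. Not reached: highest tested concentration assigned. GI50: concentration for 50% inhibition of growth. TGI marks complete inhibition of growth.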

Tests used:
Experiment in all cases: NCI anticancer screen, dose series, 48 h
HCT-116 colon = tested on: HCT-116 colon
SN12C renal = tested on: SN12C renal
HCC-2998 colon = tested on: HCC-2998 colon
COLO 205 colon = tested on: COLO 205 colon
OVCAR-4 ovarian = tested on: OVCAR-4 ovarian
MCF7 breast = tested on: MCF7 breast
786-0 renal = tested on: 786-0 renal
SK-MEL-2 melanoma = tested on: SK-MEL-2 melanoma
M19-MEL melanoma = tested on: M19-MEL melanoma

Row | SMILES | GI50 (HCT-116 colon) [µM] | TGI (HCT-116 colon) [µM] | GI50 (SN12C renal) [µM] | TGI (SN12C renal) [µM] | GI50 (HCC-2998 colon) [µM] | TGI (HCC-2998 colon) [µM] | GI50 (COLO 205 colon) [µM] | TGI (COLO 205 colon) [µM] | GI50 (OVCAR-4 ovarian) [µM] | TGI (OVCAR-4 ovarian) [µM] | GI50 (MCF7 breast) [µM] | TGI (MCF7 breast) [µM] | GI50 (786-0 renal) [µM] | TGI (786-0 renal) [µM] | GI50 (SK-MEL-2 melanoma) [µM] | TGI (SK-MEL-2 melanoma) [µM] | TGI (M19-MEL melanoma) [µM]
1 | Cn1cc(-c2nc(-c3c[nH]c4ncccc34)cs2)c2cc(F)ccc21 | 2.56 | 7.22 | 3.47 | 15.3 | 1.98 | 7.59 | 2.69 | 8.52 | 0.0689 | 22.2 | 1.13 | 6.53 | 2.82 | 7.64 | 3.81 | 11.1 | 
2 | CC(=O)N1c2ccccc2C23CCN(C)CC4C(C)OCC(C4CC2=O)C13 (stereo unspecified) |  | > 100 |  | > 100 |  | > 100 |  | > 100 |  | > 100 |  | > 100 |  | > 100 |  | > 100 | 
3 | CCOc1cccc(/C=N/NC(=O)c2ccc(Nc3ccnc(C(F)(F)F)c3)cc2)c1O | 0.367 | > 71.5 | 2.45 | > 100 | 1.49 | > 20.4 | 1.14 | > 38.3 | 0.755 | > 100 | 0.7 | > 59 | 0.951 | > 94.3 | 3.13 | > 45.4 | 
4 | Cn1cc(C2=C(c3cccc4ccccc34)C(=O)NC2=O)c2ccccc21 | 5.92 | > 16.7 | 6.58 | > 17.5 | 12.2 | > 25 | 7.23 | > 22.9 | 7.21 | > 23.8 | 5.7 | > 25 | 7.99 | > 25 | 7.33 | 18.6 | 
5 | Cn1nccc1Nc1nccc(-c2cc3c(s2)C(C)(C)N(CCN2CCOCC2)C3=O)n1 | 0.594 | > 100 | 17.1 | > 100 | 0.602 | > 100 | 0.159 | > 100 | 24 | > 100 | 24.1 | > 100 | 14.7 | > 100 | 0.402 | 6.74 | 
6 | O=C(CN1CCN(c2ncnc3ccccc23)CC1)Nc1ccc(Cl)cc1C(=O)c1ccccc1Cl | 0.417 | 11 | 0.943 |  | 1.79 | 4.96 | 0.349 | 1.33 | 1.32 | 9.36 | 0.636 | 13.1 | 0.356 | 12.3 | 0.723 | 2.67 | 
7 | C1=Cc2ccccc2Nc2ccccc21 | > 100 | > 100 | > 100 | > 100 | > 100 | > 100 | > 100 | > 100 | > 100 | > 100 | 74.7 | > 100 | > 100 | > 100 | > 100 | > 100 | 
8 | COc1cc(/C=C2\[C@H]3c4c(c(OC)c(C)c(OC)c4OC)C[C@@H](C(=O)N2Cc2ccccc2)N3C(=O)OCC(C)C)c(OC)c(C)c1OC |  | > 100 |  | > 100 |  | > 100 |  | > 100 |  | > 100 |  |  |  | > 100 |  | > 100 | > 100
